Experimental data as given in Sander's compilation of Henry's law constants (doi:10.1021/es970763v).

Experiment: Henry solubility constant Hcp at 298.15 K (mol/(m3 Pa))
Conditions: reference: Welke et al. (1998)

Row | Structure (SMILES) | Henry solubility constant Hcp
1 | CC(C)=O [propanone] | 0.096
2 | ClCCl [dichloromethane] | 3.7
3 | CC(=O)CC(C)C [4-methyl-2-pentanone] | 0.047
4 | CC(Cl)CCl (stereo not drawn) [1,2-dichloropropane] | 0.0055
5 | Cc1ccccc1 [methylbenzene] | 0.0014
6 | C=CCCl [3-chloro-1-propene] | 0.0037
7 | CCCCOC(C)=O [butyl ethanoate] | 0.027
8 | CCC[N+](=O)[O-] [1-nitropropane] | 0.16
9 | c1ccccc1 [benzene] | 0.0016
10 | C=C(C)C1CC=C(C)CC1 (stereo not drawn) [1-methyl-4-(1-methylethenyl)-cyclohexene] | 0.00024
11 | C=CC#N [2-propenenitrile] | 0.031
12 | CCCOC(C)=O [propyl ethanoate] | 0.037
13 | C=Cc1ccccc1 [ethenylbenzene] | 0.0025
14 | Cc1ccccc1C [1,2-dimethylbenzene] | 0.0022
15 | CCOC(C)=O [ethyl ethanoate] | 0.034
16 | CC#N [ethanenitrile] | 0.34
17 | Clc1ccccc1 [chlorobenzene] | 0.0027
18 | ClCC1CO1 (stereo not drawn) [(chloromethyl)-oxirane] | 0.29
